Test: Solubility noted during NMR characterisation
Format: physicochemical
Settings: NMR solvents (DMSO-d6 or CDCl3)
Experimental: All melting points were taken on a Büchi-Tottoly capillary apparatus. IR spectra were determined in bromoform with a Shimadzu FT/IR 8400S spectrophotometer. ^1H and ^13C NMR spectra were measured at 200 and 50.0 MHz, respectively, in dimethylsulfoxide (DMSO)-d6 or CDCl3 solution, using a Bruker Avance II series 200 MHz spectrometer. […] Column chromatography was performed with Merk silica gel 230–400 mesh ASTM or with Büchi Sepacor chromatography module (prepacked cartridge system). Elemental analyses (C, H, N) were within ±0.4% of theoretical values and were performed with a VARIO EL III elemental analyzer. Purity of all the tested compounds was greater than 98%, determined by HPLC as described below.

Row | Compound | solubility
1 | Cn1cc(-c2csc(-c3c[nH]c4ncccc34)n2)c2cc(F)ccc21 [Compound 3a, 3-[4-(5-Fluoro-1-methyl-1H-indol-3-yl)-1,3-thiazol-2-yl]-1H-pyrrolo[2,3-b]pyridine] | poor solubility
2 | Cn1cc(-c2csc(-c3cn(C)c4ncccc34)n2)c2cc(F)ccc21 [Compound 3b, 3-[4-(5-Fluoro-1-methyl-1H-indol-3-yl)-1,3-thiazol-2-yl]-1-methyl-1H-pyrrolo[2,3-b]pyridine] | poor solubility

Source: article PMC4413193, “3-[4-(1H-Indol-3-yl)-1,3-thiazol-2-yl]-1H-pyrrolo[2,3-b]pyridines, Nortopsentin Analogues with Antiproliferative Activity” (Marine Drugs, 2015)
